Experiments:
[1] = tested on: HOG-GSC cells; assay: Comparison of cell viability in brain tumor stem cell (MTS assay); assay type: cell-based; conditions: 72 hours, DMSO control = 1, value below 0.5 = viability decreased by 50% or more
Experimental: HOG-GSC cells which are brain tumor stem cells were treated with 11 compounds at 10 μM and DMSO as a control group, and the number of surviving cells after 72 hours was evaluated by MTS assay.
HOG-GSC which is a brain tumor stem cell was seeded on a 96-well plate at 5000 cells per well, and was cultured in an incubator (ThermoFisher) at 37° C. and 5% CO2 for 24 hours for stabilization of cells. Thereafter, it was treated with 11 compounds of the present invention at […] each, and treated with the same volume of DMSO as a control group as the volume of each compound. After treatment with the compound of the present invention and the control group, cells were cultured in an incubator at 37° C. and 5% CO2 for 72 hours. Thereafter, since there were many living cells in each well, cell viability was quantified using a cell viability assay kit (LPS solution) of which the color becomes darker with an increase in the number of cells. After treatment with the cell viability assay solution, a reaction was performed in an incubator at 37° C. and 5% CO2 for 3 hours to perform coloration, absorbance at 450 nm was measured using a microplate reader (BioTek), and an absorbance intensity of the control group was set to 1 and the absorbance of cells treated with each compound was normalized and is shown in FIG. 2.

[2] = tested on: SREBP; assay: Cell-based assay system using a 6xSRE reporter vector (copGFP intensity) in HOG-GSC-6xSRE-copGFP_HIGH cells; design: dose or concentration left out as unconfirmed; conditions: copGFP intensity normalized to DMSO control = 1, 72 hours
From the text: First, as shown in (a) of FIG. 1, SRE(5′-ATCACCCCAC-3′) 6 copies which are DNA seCuences to which a transcription factor, SREBP active form bonds were inserted into a minimal CMV promoter 5′ front end of a pGreenfire-Lenti-reporter vector to produce a 6xSRE reporter vector. The 6xSRE reporter vector is a vector system in which a minimal CMV promoter is activated only when SREBP in an activated form bonds to 6xSRE and copGFP is expressed, and after the vector was introduced to HOG-GSC which is a brain tumor stem cell, separation into a GFP high cell and a GFP low cell through FACS sorting was performed. Each of SREBP1a and SREBP1c in an active form was overexpressed in separated GFP-low cells (b of FIG. 1), and it was measured therefrom whether the expression amount of GFP was increased. As a result, it was confirmed that the overexpression of SREBP1a and SREBP1c active forms increased GFP expression by 43.30% and 93.49%, in separated GFP-low cells (c of FIG. 1). The separated GFP-high cells were treated with each of fatostatin and FGH10019 known to inhibit activity of DMSO and SREBP which was a control group to measure a change in the expression amount of GFP, and, as a result, it was confirmed that when treated with known materials, fatostatin and FGH10019, the expression of GFP was inhibited by up to 50% (d of FIG. 1).
HOG-GSC-6xSRE-copGFP_HIGH cells were dispensed into a 96-well plate (Corning) at 5000/well, each well was treated […], and then all wells were photographed every 3 hours for 72 hours in an incubator (ThermoFisher) at […], 5% CO2, using real-time cell imaging equipment (Incucyte) to photograph changes in copGFP intensity.

| Structure (SMILES) | cell viability inhibition effect (normalized MTS value) [1] | activity [2] [%] |
| --- | --- | --- |
| CC(C)(C)c1ccc(-n2cccc2/C=C2\SC(=O)NC2=O)cc1 [Compound 3, (Z)-5-((1-(4-(tert-butyl)phenyl)-1H-pyrrol-2-yl)methylene) thiazolidine-2,4-dione] | significant cell viability inhibition effect | 1 |
| Cc1ccc(-c2cc(/C=C3\SC(=O)NC3=O)ccn2)cc1 [Compound 10, (Z)-5-((2-(p-tolyl)pyridin-4-yl)methylene)thiazolidine-2,4-dione] | significant cell viability inhibition effect | 8.8 |
| O=C1NC(=O)/C(=C/c2ccnc(-c3ccc(C(F)(F)F)cc3)c2)S1 [Compound 12, (Z)-5-((2-(4-(trifluoromethyl)phenyl)pyridin-4-yl)methylene) thiazolidine-2,4-dione] | significant cell viability inhibition effect | 5.9 |
| O=C1NC(=O)/C(=C/c2ccnc(-c3ccc(OC(F)(F)F)cc3)c2)S1 [Compound 14, (Z)-5-((2-(4-(trifluoromethoxy)phenyl)pyridin-4-yl)methylene) thiazolidine-2,4-dione] | significant cell viability inhibition effect | 1.7 |
| O=C1NC(=O)/C(=C/c2ccnc(-c3ccc(OCc4ccccc4)cc3)c2)S1 [Compound 15, (Z)-5-((2-(4-(benzyloxy)phenyl)pyridin-4-yl)methylene)thiazolidine-2,4-dione] | significant cell viability inhibition effect | 8.6 |
| CC(C)(C)c1cccc(-c2cc(/C=C3\SC(=O)NC3=O)ccn2)c1 [Compound 18, (Z)-5-((2-(3-(tert-butyl)phenyl)pyridin-4-yl)methylene)thiazolidine-2,4-dione] | significant cell viability inhibition effect | 1.3 |
| Cc1cc(C)cc(-c2cc(/C=C3\SC(=O)NC3=O)ccn2)c1 [Compound 19, (Z)-5-((2-(3,5-Dimethylphenyl)pyridin-4-yl)methylene)thiazolidine-2,4-dione] | significant cell viability inhibition effect | 1.8 |
| O=C1NC(=O)/C(=C/c2ccc(-c3ccc(OC(F)(F)F)cc3)nc2)S1 [Compound 25, (Z)-5-((6-(4-(trifluoromethoxy)phenyl)pyridin-3-yl)methylene) thiazolidine-2,4-dione] | significant cell viability inhibition effect | 6.3 |
| CC(C)(C)c1ccc(-c2cncc(/C=C3\SC(=O)NC3=O)c2)cc1 [Compound 28, (Z)-5-((5-(4-(tert-butyl)phenyl)pyridin-3-yl)methylene)thiazolidine-2,4-dione] | significant cell viability inhibition effect | 4.8 |
| CC(C)(C)c1ccc(-c2ccnc(/C=C3\SC(=O)NC3=O)c2)cc1 [Compound 31, (Z)-5-((4-(4-(tert-butyl)phenyl)pyridin-2-yl)methylene)thiazolidine-2,4-dione] | significant cell viability inhibition effect | 4.5 |

Reference: US20250066347A1, “SUBSTITUTED THIAZOLIDINEDIONE DERIVATIVE COMPOUND, AND PHARMACEUTICAL COMPOSITION FOR PREVENTING OR TREATING CANCER, COMPRISING SAME” (MEDIFIC, INC., priority 2021, published 2025)
